Results as given in patent EP0555116B1, “Compositions based on antiseptics and their applications” (HUTCHINSON, priority 1992, dated 1993).
Read-outs that look alike come from different tables or passages of the source.

Columns and labels:
[1] = test system: cellules fibroblastiques humaines; assay: Cytotoxicity control of the products on human fibroblast cultures (10 tubes, 3 days); type: cell-based; conditions: pur et dilutions 10^-1 à 10^-3, 0,1 ml dans 1 ml
Excerpt: On réalise des contrôles de cytotoxicité des produits pour les cultures cellulaires utilisées dans les tests, c'est-à-dire les cellules fibroblastiques humaines.
Les cellules sont cultivées en milieu de Dulbecco enrichi en sérum de veau foetal à 10 %; au moment de leur utilisation, les cellules sont lavées et on utilise le même milieu de culture, mais dépourvu de sérum de veau.
Pour chaque produit testé ou chaque composition, on a utilisé 10 tubes de culture cellulaire et après inoculation du produit, les tubes ont été surveillés pendant trois jours.
Chaque produit a été successivement utilisé pur, et aux dilutions 10^-1, 10^-2, 10^-3 et ajouté aux tubes de culture contenant 1 ml de milieu nutritif, sous le volume de 0,1 ml.

[2] = test system: S. aureus ATCC 6538; assay: Growth inhibition test (DGHM, Essai 2, Tables A-C), 72 h at 37°C; non/A/B/C = without or with inactivating substances A, B, C; type: cell-based, Staphylococcus aureus; conditions: for concentration en substance active inhibant la croissance: antiseptique seul
Procedure: (§1) Un autre essai a été réalisé à partir des solutions suivantes : • 100 ml d'une solution à 0,1 % de digluconate de chlorhexidine (pH 6) et • 100 ml d'une solution à 0,1 % de Bardac 22®.
(§2) L'activité de ces solutions, seules ou en combinaison a été plus particulièrement testée vis-à-vis de Staphylococcus aureus ATCC 6538, Escherichia coli ATCC 11229 et Candida albicans ATCC 10231.
(§3) Les tests ont été réalisés conformément au protocole décrit dans le Chapitre I/2.1 et 2.2 de Richtlinien für die Prüfung und Bewertung chemischer Desinfektionsverfahren der DGHM, Stand 1.1., 1981).
(§4) Les Tableaux A, B et C illustrent respectivement l'activité bactéricide et fongicide d'une solution aqueuse à 0,1 % de digluconate de chlorhexidine, d'une solution aqueuse à 0,1 % de Bardac 22® et d'un mélange à part égale des deux composés. Les protocoles dont ces Tableaux illustrent les résultats comprennent une incubation de 72 heures à 37°C et l'utilisation, comme témoins, des substances inactivantes suivantes : A : Tween® 80 3 % + lécithine 0,3 % + cystéine 0,1 %; B : Tween® 80 3 % + saponine 3 % + cystéine 0,1 % + histidine 0,1 %; C : Tween® 80 3 % + lécithine 0,3 % + histidine 0,1 % + thiosulfate de sodium 0,5 %.
(§5) Dans ces Tableaux, le signe "+" indique une croissance et le signe "-" l'absence de croissance.

[3] = test system: E. coli ATCC 11229; assay: as above; type: cell-based, Escherichia coli; conditions: for concentration en substance active inhibant la croissance: antiseptique seul
Procedure: as §1, §2, §3, §4, §5

[4] = test system: spermatozoïdes; assay: Spermicidal action: vitality of spermatozoa (eosin-nigrosin, 100 spermatozoa examined); type: cell-based; conditions: Homo sapiens, Sperm; for viability at 0.4 %: read-out: vitalité des spermatozoïdes, solution 0,4 %; for viability at 0.6 %: read-out: vitalité des spermatozoïdes, solution 0,6 %; for viability at 0.8 %: read-out: vitalité des spermatozoïdes, solution 0,8 %; for viability at 1 %: read-out: vitalité des spermatozoïdes, solution 1 %; for viability at 0.5 %: solution 0,5 %, read-out: vitalité des spermatozoïdes
Excerpt: Les différents échantillons de sperme (une goutte de sperme/échantillon) sont obtenus à partir de volontaires sains.
Une goutte de sperme est traitée par l'éosinenigrosine. Un frottis est ensuite réalisé et cent spermatozoïdes sont examinés au microscope. Les cellules mortes sont colorées en rouge, soit totalement, soit partiellement. Les cellules vivantes sont incolores.
Les substances étudiées ont été, le Bardac® et le digluconate de chlorhexidine, testés seuls et en association conformément à l'invention. Les différentes étapes du protocole sont indiquées aux Tableaux IV à VI.
Le temps de contact maximum des différentes substances et du sperme a été limité à 3 minutes afin de garantir l'efficacité de la méthode dans les conditions d'utilisation. La concentration des solutions actives dans le sperme a été limitée à 10 % afin de diminuer les risques de toxicité des produits pour les muqueuses. TABLEAU IV

[5] = 1 min, 1 Min, 5 % dans le sperme
[6] = 1 min, 1 Min, 10 % dans le sperme
[7] = 0.05 h, 3 Min, 5 % dans le sperme
[8] = 0.05 h, 3 Min, 10 % dans le sperme

CCCCCCCCCC[N+](C)(C)CCCCCCCCCC [Bardac®, chlorure de didécyldiméthylammonium]
toxicité pour les cultures cellulaires ([1]; solution à 0,04 %): non toxique à la dilution 10^-3 | croissance ([2]; Conc. 0,1 % (vol/vol), A): + | croissance ([2]; Conc. 0,1 % (vol/vol), B): + | croissance ([2]; Conc. 0,1 % (vol/vol), C): + | croissance ([2]; Conc. 0,1 % (vol/vol), non): - | croissance ([2]; Conc. 0,05 % (vol/vol), A): + | croissance ([2]; Conc. 0,5 % (vol/vol), A): + | croissance ([2]; Conc. 0,05 % (vol/vol), B): + | croissance ([2]; Conc. 0,5 % (vol/vol), B): + | croissance ([2]; Conc. 0,05 % (vol/vol), C): + | croissance ([2]; Conc. 0,5 % (vol/vol), C): + | croissance ([2]; Conc. 0,05 % (vol/vol), non): + | croissance ([2]; Conc. 0,5 % (vol/vol), non): - | croissance ([2]; Conc. 1,0 % (vol/vol), A): + | croissance ([2]; Conc. 1,0 % (vol/vol), B): + | croissance ([2]; Conc. 1,0 % (vol/vol), C): + | croissance ([2]; Conc. 1,0 % (vol/vol), non): - | croissance ([2]; Conc. 0,00625 % (vol/vol), A): + | croissance ([2]; Conc. 0,00625 % (vol/vol), B): + | croissance ([2]; Conc. 0,00625 % (vol/vol), C): + | croissance ([2]; Conc. 0,00625 % (vol/vol), non): + | croissance ([2]; Conc. 0,0125 % (vol/vol), A): + | croissance ([2]; Conc. 0,0125 % (vol/vol), B): + | croissance ([2]; Conc. 0,0125 % (vol/vol), C): + | croissance ([2]; Conc. 0,0125 % (vol/vol), non): + | croissance ([2]; Conc. 0,025 % (vol/vol), A): + | croissance ([2]; Conc. 0,025 % (vol/vol), B): + | croissance ([2]; Conc. 0,025 % (vol/vol), C): + | croissance ([2]; Conc. 0,025 % (vol/vol), non): + | concentration en substance active inhibant la croissance [2]: 0,0001% | croissance ([3]; Conc. 0,1 % (vol/vol), A): + | croissance ([3]; Conc. 0,1 % (vol/vol), B): + | croissance ([3]; Conc. 0,1 % (vol/vol), C): + | croissance ([3]; Conc. 0,1 % (vol/vol), non): + | croissance ([3]; Conc. 0,05 % (vol/vol), A): + | croissance ([3]; Conc. 0,5 % (vol/vol), A): + | croissance ([3]; Conc. 0,05 % (vol/vol), B): + | croissance ([3]; Conc. 0,5 % (vol/vol), B): + | croissance ([3]; Conc. 0,05 % (vol/vol), C): + | croissance ([3]; Conc. 0,5 % (vol/vol), C): + | croissance ([3]; Conc. 0,05 % (vol/vol), non): + | croissance ([3]; Conc. 0,5 % (vol/vol), non): - | croissance ([3]; Conc. 1,0 % (vol/vol), A): + | croissance ([3]; Conc. 1,0 % (vol/vol), B): + | croissance ([3]; Conc. 1,0 % (vol/vol), C): + | croissance ([3]; Conc. 1,0 % (vol/vol), non): - | croissance ([3]; Conc. 0,00625 % (vol/vol), A): + | croissance ([3]; Conc. 0,00625 % (vol/vol), B): + | croissance ([3]; Conc. 0,00625 % (vol/vol), C): + | croissance ([3]; Conc. 0,00625 % (vol/vol), non): + | croissance ([3]; Conc. 0,0125 % (vol/vol), A): + | croissance ([3]; Conc. 0,0125 % (vol/vol), B): + | croissance ([3]; Conc. 0,0125 % (vol/vol), C): + | croissance ([3]; Conc. 0,0125 % (vol/vol), non): + | croissance ([3]; Conc. 0,025 % (vol/vol), A): + | croissance ([3]; Conc. 0,025 % (vol/vol), B): + | croissance ([3]; Conc. 0,025 % (vol/vol), C): + | croissance ([3]; Conc. 0,025 % (vol/vol), non): + | concentration en substance active inhibant la croissance [3]: 0,0005% | viability at 0.4 % [4, 5]: 10.7 ± 7.6% | viability at 0.4 % [4, 6]: 5 ± 6.4% | viability at 0.6 % [4, 5]: 10.5 ± 9.7% | viability at 0.6 % [4, 6]: 9.2 ± 12.9% | viability at 0.8 % [4, 5]: 9.7 ± 10.2% | viability at 0.8 % [4, 6]: 1.8 ± 2.5% | viability at 1 % [4, 5]: 0% | viability at 1 % [4, 6]: 0% | viability at 0.4 % [4, 7]: 0.8 ± 1.2% | viability at 0.4 % [4, 8]: 0.8 ± 1% | viability at 0.6 % [4, 7]: 2.2 ± 4.5% | viability at 0.6 % [4, 8]: 0.4 ± 0.9% | viability at 0.8 % [4, 7]: 0% | viability at 0.8 % [4, 8]: 0% | viability at 1 % [4, 7]: 0% | viability at 1 % [4, 8]: 0%

[H]/N=C(\N/C(=N/[H])NCCCCCCNC(=N)NC(=N)Nc1ccc(Cl)cc1)Nc1ccc(Cl)cc1 [Chlorhexidine, digluconate de chlorhexidine, reference compound]
toxicité pour les cultures cellulaires ([1]; solution à 0,05 %): aucune toxicité | croissance ([2]; Conc. 0,1 % (vol/vol), A): + | croissance ([2]; Conc. 0,1 % (vol/vol), B): + | croissance ([2]; Conc. 0,1 % (vol/vol), C): + | croissance ([2]; Conc. 0,1 % (vol/vol), non): + | croissance ([2]; Conc. 0,05 % (vol/vol), A): + | croissance ([2]; Conc. 0,5 % (vol/vol), A): + | croissance ([2]; Conc. 0,05 % (vol/vol), B): + | croissance ([2]; Conc. 0,5 % (vol/vol), B): + | croissance ([2]; Conc. 0,05 % (vol/vol), C): + | croissance ([2]; Conc. 0,5 % (vol/vol), C): + | croissance ([2]; Conc. 0,05 % (vol/vol), non): + | croissance ([2]; Conc. 0,5 % (vol/vol), non): - | croissance ([2]; Conc. 1,0 % (vol/vol), A): + | croissance ([2]; Conc. 1,0 % (vol/vol), B): + | croissance ([2]; Conc. 1,0 % (vol/vol), C): + | croissance ([2]; Conc. 1,0 % (vol/vol), non): - | croissance ([2]; Conc. 0,00625 % (vol/vol), A): + | croissance ([2]; Conc. 0,00625 % (vol/vol), B): + | croissance ([2]; Conc. 0,00625 % (vol/vol), C): + | croissance ([2]; Conc. 0,00625 % (vol/vol), non): + | croissance ([2]; Conc. 0,0125 % (vol/vol), A): + | croissance ([2]; Conc. 0,0125 % (vol/vol), B): + | croissance ([2]; Conc. 0,0125 % (vol/vol), C): + | croissance ([2]; Conc. 0,0125 % (vol/vol), non): + | croissance ([2]; Conc. 0,025 % (vol/vol), A): + | croissance ([2]; Conc. 0,025 % (vol/vol), B): + | croissance ([2]; Conc. 0,025 % (vol/vol), C): + | croissance ([2]; Conc. 0,025 % (vol/vol), non): + | concentration en substance active inhibant la croissance [2]: 0,0005% | croissance ([3]; Conc. 0,1 % (vol/vol), A): + | croissance ([3]; Conc. 0,1 % (vol/vol), B): + | croissance ([3]; Conc. 0,1 % (vol/vol), C): + | croissance ([3]; Conc. 0,1 % (vol/vol), non): + | croissance ([3]; Conc. 0,05 % (vol/vol), A): + | croissance ([3]; Conc. 0,5 % (vol/vol), A): + | croissance ([3]; Conc. 0,05 % (vol/vol), B): + | croissance ([3]; Conc. 0,5 % (vol/vol), B): + | croissance ([3]; Conc. 0,05 % (vol/vol), C): + | croissance ([3]; Conc. 0,5 % (vol/vol), C): + | croissance ([3]; Conc. 0,05 % (vol/vol), non): + | croissance ([3]; Conc. 0,5 % (vol/vol), non): - | croissance ([3]; Conc. 1,0 % (vol/vol), A): + | croissance ([3]; Conc. 1,0 % (vol/vol), B): + | croissance ([3]; Conc. 1,0 % (vol/vol), C): + | croissance ([3]; Conc. 1,0 % (vol/vol), non): - | croissance ([3]; Conc. 0,00625 % (vol/vol), A): + | croissance ([3]; Conc. 0,00625 % (vol/vol), B): + | croissance ([3]; Conc. 0,00625 % (vol/vol), C): + | croissance ([3]; Conc. 0,00625 % (vol/vol), non): + | croissance ([3]; Conc. 0,0125 % (vol/vol), A): + | croissance ([3]; Conc. 0,0125 % (vol/vol), B): + | croissance ([3]; Conc. 0,0125 % (vol/vol), C): + | croissance ([3]; Conc. 0,0125 % (vol/vol), non): + | croissance ([3]; Conc. 0,025 % (vol/vol), A): + | croissance ([3]; Conc. 0,025 % (vol/vol), B): + | croissance ([3]; Conc. 0,025 % (vol/vol), C): + | croissance ([3]; Conc. 0,025 % (vol/vol), non): + | concentration en substance active inhibant la croissance [3]: 0,0005% | viability at 0.5 % [4, 5]: 77 ± 10.8% | viability at 0.5 % [4, 6]: 77.2 ± 5.6% | viability at 0.5 % [4, 7]: 78 ± 5.7% | viability at 0.5 % [4, 8]: 75.5%
